Tests used:
[1] = tested on: human breast cancer MCF-7 cells; assay: Detachment and apoptotic nuclear changes in MCF-7 cells; assay type: cell-based; conditions: MCF-7, 24 h
Description: (§1) c. Treatment of cells with MCP inhibitor. Cells were treated with a specified MCP Inhibitor, a standard anticancer agent (etoposide or cisplatin), or DMSO (vehicle). During this process, morphological changes and cellular detachment (for attached cell lines) were monitored. At each time point, cells were harvested, and used for measurement of apoptosis and other biochemical events. In Example 1, infra, involving YVAD-CMK, Compound A was first added to Jurkat T cells. This was followed immediately by dividing the cells into multiple tissue culture flasks. YVAD-CMK was then added to an indicated concentration.
(§2) d. Flow cytometry nuclear staining and DNA fragmentation assays. DNA content analysis using flow cytometry was performed as described previously (Nicoletti, I., et al. J. Immunol. Methods 139:271-279, 1992). To assay nuclear morphology, cells were washed with PBS, fixed with 70% ethanol for 1 h, and stained with Hoechst 33258 (1 mM) for 30 min. The nuclear morphology of cells was visualized by fluorescence microscope (OLYMPUS BH2). DNA fragmentation was assayed as described previously (Grant, S., et al. Cancer Res. 52:6270-6278, 1992).
Detachment was also found in at least half of human breast cancer MDA-MB-231 and MCF-7 cells, after exposure to Compound A for 24 h.

[2] = tested on: PARP, RB and caspase-3 cleavage in Jurkat T cells; assay: Western blot of caspase-3, PARP and RB in Jurkat T cells; assay type: cell-based, human
Description: (§3) e. Whole cell extracts and western blot assay. To prepare whole cell extracts, cells were washed with PBS, and homogenized in lysis buffer (50 mM Tris, pH 8.0, 5 mM EDTA, 150 mM NaCl, 0.5% Nonidet P-40, 0.5 mM PMSF and 0.5 mM dithiothreitol). Following 30 min rocking at 4° C., the lysates were centrifuged and the supernatants were collected as whole cell extracts. The protein samples were then analyzed by sodium dodecyl sulfate-6% polyacrylamide gel electrophoresis (20-60 μg protein per lane) followed by the enhanced chemiluminescence Western blot assay using specific antibodies to CPP32, PARP, p21, p27 or RB.
Example 1 was designed to determine if MCP is involved in the survival signaling pathway(s) and if inhibition of MCP activity induces apoptosis. Human Jurkat T cells were treated with 30 μM Compound A for 4 h. […] Both the p112 and p115 forms of RB as p112-115/RB were combined and used as an apoptosis marker.
The ability of these three MCP inhibitors to induce changes in PARP and RB proteins in a parallel experiment was also investigated. […] This rank corresponded exactly to that of the three compounds for inhibition of the chymotrypsin-like activity in isolated proteasomes (Iqbal, M., et al. J. Med Chem. 38: 2276-2277, 1995; Iqbal, M., et al. Bioorg. Med. Chem. Lett. 6: 287-290, 1996) and in intact murine B cells (Harding, C. V., et al. J Immuno. 155: 1767-1775, 1995).

[3] = target: MCP chymotrypsin-like activity (Homo sapiens, UniProt P28074); conditions: literature values (Iqbal et al.; Rock et al.); read-out: Ki toward the proteasome chymotrypsin-like activity; cited from earlier work
[4] = tested on: osteosarcoma cell line U2OS; assay: Detachment and apoptosis in U2OS cells; assay type: cell-based, human; conditions: U2OS (data not shown)
Description: as §1, §2

[5] = tested on: Jurkat cells transfected with a control vector; assay: Apoptotic nuclear changes (Hoechst staining) in Jurkat cells transfected with control vector; assay type: cell-based, human
Description: b. Cell culture. Human Jurkat T and HL-60 cells were grown in RPMI 1640 (Life Technologies, Inc.) supplemented with 10% fetal calf serum (Sigma), 100 units/ml of penicillin, 100 μg/ml of streptomycin and 2mM L-glutamine (growth medium). Jurkat T. cells overexpressing the Bcl-2 oncoprotein or vector alone (provided by Dr. D. Johnson, University of Pittsburgh, Pa.) were grown in the same growth medium with […] G418. Human cancer cell lines of breast (MCF-7, MDA-MB-231), prostate (DU145, PC3) and osteosarcoma (U2-OS), obtained from American Type Culture Collection (ATCC. Rockville, Md.)), were also grown in the RPMI growth medium. Human oral (SCC-25; from ATCC) and brain (SNB-19; Welch, W. C., et al. In Vitro Cell. Dev. Biol., 31:610-616, 1995) cancer cell lines, and normal (WI-38) and SV40-transformed human fibroblasts (WI-38 VA-13; from ATCC) were grown in DMEM medium containing 10% fetal calf serum, penicillin, streptomycin and L-glutamine.
as §2
The apoptosis-inducing potency of Compound A was compared with two standard chemotherapeutic anti-cancer agents, etoposide and cisplatin. […] By comparison, treatment with 50 μM etoposide for 8 h induced only ˜47% of these cells to undergo apoptosis (FIG. 3, panels c vs. a). Treatment of 10 μM Compound A, but not etoposide or cisplatin, induced apoptosis in human prostate, breast, tongue and brain cancer cells and also in SV40 DNA virus-transformed human fibroblasts (see FIGS. 5-7).

[6] = tested on: SV40-transformed human fibroblasts (WI-38 VA13); assay: Detachment, apoptotic nuclear changes and PARP cleavage in SV40-transformed fibroblasts; assay type: cell-based
Description: as §1, §2, §3
(§4) Whether Compound A has, any selectivity in induction of apoptosis between transformed and normal cells was investigated. Normal human fibroblast cell line (WI-38) and its SV40-transformed derivative (WI-38 VA13) were utilized. […]

[7] = tested on: p21 and p27 in SV-40 transformed WI-38 fibroblasts; assay: Western blot of p21 and p27 levels in SV-40 transformed WI-38 fibroblasts; assay type: cell-based, human; conditions: SV-40 transformed WI-38, 10 μM, 22 hours
Description: as §3
The accumulation of p21 and p27 following treatment with Compound A was also evaluated in SV-40 transformed and normal WI-38 fibroblasts.

[8] = tested on: Normal human fibroblast cell line (WI-38); assay: Detachment, apoptotic nuclear changes and PARP cleavage in normal fibroblasts; assay type: cell-based
Description: as §1, §2, §3, §4

[9] = tested on: glioblastoma cell line SNB-19; assay: Detachment and apoptosis in SNB-19 cells; assay type: cell-based, human
Description: as §1, §2

In the case of CC(C)C[C@@H](C=O)NC(=O)[C@@H](CCCNC(=N)N[N+](=O)[O-])NC(=O)C(CCCCCCCCN1C(=O)c2ccccc2C1=O)C1CCCC1 (stereo partly shown) [Compound A], the “Apoptosis by nuclear staining” value [1] is reported as “apoptotic morphology in all of the detached and most of the attached cells”, the Detached cells [1] is reported as “at least half” and the “Production of p85/PARP and p112-115/RB” value ([2]; Jurkat T cells, 15 μM, time course up to 24 h) is reported as “production of p85/PARP and p 112-115/RB were observed after 2 h”. For the same compound, the “Cleavage of PARP to p85 and RB to p68” value ([2]; Jurkat T cells, 30 μM, 4 h) was “induced cleavage of PARP to a p85 fragment”, the “Processing of caspase-3” value ([2]; Jurkat T cells, 30 μM, 4 h) was “induced processing of caspase-3” and the “Cleavage of PARP” value ([2]; Jurkat cells, 30 μM, 3-4 h) was “complete cleavage of PARP”. The Ki [3] was under 2 nM, the “Induction of cellular detachment and apoptosis” value [4] was “induced cellular detachment and apoptosis” and the “Cells exhibiting apoptotic nuclear morphology” value ([5]; 15 μM, 8 h) was 30%. The “Cells exhibiting apoptotic nuclear changes” value ([5]; 30 μM, 3.5 h) was about 100%, the PARP cleavage ([6]; SV40-transformed WI-38, total cell population) was “observed only in the transformed” and the “Detachment and apoptotic nuclear changes” value ([6]; WI-38 VA13, 10 μM, up to 22 h) was “induced a detachment in the majority of SV40-transformed cells”. For the same compound, the “Elevation of p27 levels” value [7] was 8 fold, the “Detachment and apoptotic nuclear changes” value ([8]; normal WI-38, 10 μM, up to 22 h) was “did not induce either detachment or apoptotic nuclear morphology” and the PARP cleavage ([8]; normal WI-38, total cell population) was “not in the normal”. The “Induction of cellular detachment and apoptosis” value [9] was “induced cellular detachment and apoptosis”.
